Reference: the NIST ThermoML archive (doi:10.1016/j.jct.2019.06.017)
Several values for one entry are separate records, joined by “and”; a condition that tells them apart may be missing. Equal values may be shown once.

Assay: Boiling temperature at pressure P
Details: Liquid, Ebulliometric method (Recirculating still)

OCCN1CCCC1 [1-(2-hydroxyethyl)pyrrolidine]
Details	Boiling temperature at pressure P [°C]
2.8 kPa	87.5
4.8 kPa	99.1
9.8 kPa	115.7
19.8 kPa	132.4
29.8 kPa	144
39.8 kPa	153.0
49.8 kPa	159.5
59.8 kPa	165.0
69.8 kPa	169.5
79.8 kPa	173.8
89.8 kPa	176.7

CCN(CC)CCCO [3-diethylamino-1-propanol]
Details	Boiling temperature at pressure P [°C]
1.8 kPa	80.8
2.8 kPa	87.1
19.8 kPa	132.2
22.3 kPa	136.1
24.8 kPa	139.0
34.8 kPa	147.1
44.8 kPa	154.2
54.8 kPa	160.2
64.8 kPa	167.0
69.8 kPa	169.1

CN(C)CCCO [3-dimethylamino-1-propanol]
Details	Boiling temperature at pressure P
4.8 kPa	79.2 °C and 79.8 °C
9.8 kPa	95.2 °C
14.8 kPa	105.4 °C
19.8 kPa	112.7 °C
29.8 kPa	123.7 °C
39.8 kPa	132 °C
49.8 kPa	138.5 °C
59.8 kPa	144.1 °C
69.8 kPa	148.6 °C
79.8 kPa	153.2 °C
89.8 kPa	156.8 °C
99.8 kPa	160.6 °C

O [water]
Details	Boiling temperature at pressure P [°C]
9.8 kPa	45.2
19.8 kPa	60
29.8 kPa	69.0
39.8 kPa	75.8
49.8 kPa	81.2
59.8 kPa	86.0
69.8 kPa	90.0
79.8 kPa	93.6
100.1 kPa	99.5
